Assay results taken from paper PMC8063026 (Frontiers in Pharmacology, 2021).
Like-named read-outs stand apart in the source and are kept apart here.

How the values were obtained:
[1] = biological target: T1, DAT (Homo sapiens, UniProt Q01959); experiment: cell-based
T1 construct: expressed in transfected cells

[2] = biological target: T1, DAT; settings: QSAR data matrix; unit inferred; compounds not tested in this paper, source not given, presumably ref Mayer et al., 2019; read-out: IC50 DAT; cited from earlier work
[3] = biological target: T2, SERT (Homo sapiens, UniProt P31645); experiment: Uptake-inhibition of [3H]5-HT in HEK293 cells stably expressing human SERT; type: cell-based; settings: for pIC50 SERT: from IC50 SERT
T2 construct: expressed in transfected cells

[4] = biological target: T3, human NET (Homo sapiens, UniProt P23975); settings: QSAR data matrix; unit inferred; compounds not tested in this paper, source not given, presumably ref Mayer et al., 2019; cited from earlier work
T3 construct: expressed in transfected cells

[5] = biological target: T3, human NET; experiment: cell-based; settings: for pIC50 NET: QSAR data matrix, from IC50 NET; for IC50: mean (95% confidence interval), non-linear regression, read-out: IC50 (µM) NET
[6] = biological target: T2, SERT; settings: QSAR data matrix; unit inferred; compounds not tested in this paper, source not given, presumably ref Mayer et al., 2019; read-out: IC50 SERT; cited from earlier work
[7] = LC-MS/MS detection of mephedrone metabolites in a human urine sample; type: in vivo; set-up: key to Detected in urine samples: detected (+); not detected (−); settings: for detection in human urine sample: achiral LC-MS/MS, after enzymatic workup; for Detected in urine samples: human urine, mephedrone user, only syn- and anti-configurations could be separated
Text: The biological specimen, human urine, was provided by the Department of Chemical Analytics, Seibersdorf Laboratories GmbH. The sample was taken from a subject postmortem in a fatal case of drug overdose. […] Given this fact, we assumed that also the metabolites would be detectable in sufficient quantity. To evaluate the presence of any metabolites whatsoever in the urine sample we designed an achiral separation protocol for liquid chromatography and we coupled it with triple quadrupole mass spectrometer. The advantage of LC-MS/MS system is that even if two substances have the same retention time, they can still be differentiated by their fragmentation pattern. More in details, the samples for urine analysis were analyzed using a CTC HTS PAL autosampler (CTC Analytics) and a Thermo Surveyor LC system (Thermo) interfaced to a TSQ Quantum Discovery Max triple quadrupole mass spectrometer (Thermo). A C18 security guard cartridge (4 × 2 mm) (Phenomenex) was used for sample clean-up and the analytical HPLC column was a Kinetex 1.7 μm C18 100Å 150 × 2.1 mm (Phenomenex) and Cortecs T3, 2.7 μm C18 120Å 100 × 2.1 mm (Waters). Column selection was performed by a Maylab Mistraswitch column selector (Maylab Analytical Instruments). The solvents were 0.2% formic acid in water (A) and acetonitrile (B). The temperature of the analytical column was maintained at 40°C. The mass spectrometer was equipped with heated electrospray ionization (ESI) source and was operated in positive ionization mode with a spray voltage set at 4500V. The capillary temperature was adjusted to 320°C. The sheath and auxiliary gas (nitrogen) flow rate was 25 and 10 arbitrary units, respectively. The system was operated in selected […] (srm) mode with argon as the collision gas at a pressure of 1.5 mTorr. For the achiral separation, stem solutions were prepared by weighing the reference substances in volumetric flasks and filling them up with MeOH (99.9%; HPLC grade), creating average concentration of 1 mg/ml. Then dilution solutions were prepared as follows: 10 μL of stem solution was filled up to 5 ml MeOH, creating dilution […]. Samples were prepared from dilution solutions by taking out 25 μL and mixing it together with 25 μL of ISP, 50 μL ISS and filled up to 1 ml with Milli-Q water. The final sample solvent was water/MeOH 9/1. For the enzymatic workup, phosphate buffer (1 ml, 0.8M, pH = 7), β-glucuronidase/arylsulfatase (25 μL) and β-glucuronidase (25 μL) were added to the solutions. The solutions were heated at 50°C during 1 h upon which EtOAc (7 ml) was added. The solution was put into shaker for 10min, following centrifugation for 5 min. The organic phase was separated and evaporated into dryness in stream of pressurized nitrogen. The residue was taken up in 150 μL MQ-water/MeOH 9/1 + 0.4% formic acid, heated at 50°C for 5 min and subjected to LC-MS analysis.
If on one hand the synthesis of putative metabolites allows the establishment of structure activity relationships, on the other hand, it provides pure material to evaluate their presence in human urine samples and determine their pharmacological relevance. To determine the presence of any metabolites in the urine sample, we have designed an achiral separation protocol and coupled the liquid chromatography with triple quadrupole mass spectrometer (LCMS/MS). With the LCMS/MS system two substances with the same retention time, can still be differentiated by their fragmentation pattern. Since metabolites carrying a primary alcohol functionality can form glucuronide and sulfate conjugates, we performed an enzymatic workup of the urine sample in order to cleave them. Apart from the parental drug, we detected 4-OH-MMC and 4-MC (nor-meph) which we have both already identified in our previous publication ([Mayer et al., 2019]), and the two previously uncharacterized metabolites 4-COOH-MC and dihydro-4-MC (Figure 6). […]

[8] = ref Olesti et al., 2019; cited from earlier work
[9] = biological target: T2, SERT; experiment: Transporter electrophysiology (whole cell patch clamp), HEK293 cells stably expressing SERT; type: cell-based; settings: compound applied at 30 µM, -60 mV
Description: (§1) Human embryonic kidney 293 cells (HEK293 cells) were cultivated in Dulbecco’s Modified Eagle Medium (DMEM), containing 10% heat-in- activated fetal calf serum (FCS), streptomycin (100 μg x 100 ml−1) and penicillin (100 U × 100 ml−1). Geneticin (50 μg x mL−1) was added to select HEK293 cells stably expressing the human isoforms of DAT, NET and SERT as described earlier ([Mayer et al., 2016a]). Cell lines were maintained in a sub-confluent state in humidified atmosphere (37°C, 5% CO2). For uptake inhibition experiments cells expressing the desired transporter were seeded the days before the experiment (40,000 cells per well) or two days before the experiments (20,000 cells per well) onto poly-D-lysine (PDL) coated 96-well plates 24 h prior to the experiment. In the case of transporter-electrophysiology cells were cultivated in 10 cm dishes and 24 h before the experiments they were detached, and seeded at low density onto PDL-coated 3 cm dishes.
(§2) Transporter electrophysiology was conducted by the means of whole cell patch clamp in HEK293 cells stably expressing DAT or SERT. Substrate-induced currents were recorded under voltage clamp (−60 mV). Cells were continuously superfused with a physiological external solution that contains 140 mM NaCl, 2.5 mM CaCl2, 2 mM MgCl2, 20 mM glucose and 10 mM HEPES, pH = 7.4. The pipette solution contained 133 mM potassium gluconate, 6 mM NaCl, 1 mM CaCl2, 0.7 mM MgCl2, 10 mM HEPES, 10 mM EGTA, pH = 7.2. Currents elicited by mephedrone 30 μM, were measured at room temperature (20–24°C) using an […] amplifier and pClamp 11.2 software (MDS Analytical Technologies). All the solutions perfused onto the cell were applied using a DAD-12 superfusion system and a 8-tube perfusion manifold (ALA Scientific Instruments), which allowed for rapid solution exchange. Current traces were filtered at 1 kHz and digitized at 10 kHz using a Digidata 1,550 (MDS Analytical Technologies). […] For the analysis, passive holding currents were subtracted, and the traces were filtered using a 100-Hz digital Gaussian low-pass filter.

[10] = biological target: T1, DAT; experiment: Transporter electrophysiology (whole cell patch clamp), HEK293 cells stably expressing DAT; type: cell-based; settings: compound applied at 30 µM, -60 mV
Description: as §1, §2

[11] = minor metabolites in rats; ref Linhart et al., 2016; cited from earlier work
[12] = QSAR data matrix, from IC50 DAT
[13] = QSAR data matrix, from IC50 DAT, read-out: pIC50 DAT (converted)
[14] = mean (95% confidence interval), non-linear regression, read-out: IC50 (µM) DAT
[15] = mean (95% confidence interval), non-linear regression, read-out: IC50 (µM) SERT
[16] = IC50 (µM) SERT, mean (95% confidence interval), non-linear regression
[17] = IC50 SERT, QSAR data matrix, unit inferred

T1 sequence (Q01959 whole entry): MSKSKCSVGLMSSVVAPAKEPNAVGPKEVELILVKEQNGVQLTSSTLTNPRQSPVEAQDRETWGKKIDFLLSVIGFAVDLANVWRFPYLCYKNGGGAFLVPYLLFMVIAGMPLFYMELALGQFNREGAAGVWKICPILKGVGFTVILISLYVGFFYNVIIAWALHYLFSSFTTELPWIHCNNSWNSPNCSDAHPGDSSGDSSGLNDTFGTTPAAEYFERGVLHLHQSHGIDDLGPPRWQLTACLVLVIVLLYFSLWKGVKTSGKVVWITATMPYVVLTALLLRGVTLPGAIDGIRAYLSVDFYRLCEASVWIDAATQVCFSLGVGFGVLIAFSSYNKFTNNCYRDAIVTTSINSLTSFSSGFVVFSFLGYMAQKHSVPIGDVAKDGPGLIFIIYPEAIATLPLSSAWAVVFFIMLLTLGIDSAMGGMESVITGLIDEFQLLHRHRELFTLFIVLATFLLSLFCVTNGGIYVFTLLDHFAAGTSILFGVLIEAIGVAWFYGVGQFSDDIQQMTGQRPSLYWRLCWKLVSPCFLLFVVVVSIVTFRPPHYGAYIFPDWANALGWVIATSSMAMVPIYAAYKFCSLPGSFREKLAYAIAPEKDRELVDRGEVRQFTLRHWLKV
T3 sequence (P23975 whole entry): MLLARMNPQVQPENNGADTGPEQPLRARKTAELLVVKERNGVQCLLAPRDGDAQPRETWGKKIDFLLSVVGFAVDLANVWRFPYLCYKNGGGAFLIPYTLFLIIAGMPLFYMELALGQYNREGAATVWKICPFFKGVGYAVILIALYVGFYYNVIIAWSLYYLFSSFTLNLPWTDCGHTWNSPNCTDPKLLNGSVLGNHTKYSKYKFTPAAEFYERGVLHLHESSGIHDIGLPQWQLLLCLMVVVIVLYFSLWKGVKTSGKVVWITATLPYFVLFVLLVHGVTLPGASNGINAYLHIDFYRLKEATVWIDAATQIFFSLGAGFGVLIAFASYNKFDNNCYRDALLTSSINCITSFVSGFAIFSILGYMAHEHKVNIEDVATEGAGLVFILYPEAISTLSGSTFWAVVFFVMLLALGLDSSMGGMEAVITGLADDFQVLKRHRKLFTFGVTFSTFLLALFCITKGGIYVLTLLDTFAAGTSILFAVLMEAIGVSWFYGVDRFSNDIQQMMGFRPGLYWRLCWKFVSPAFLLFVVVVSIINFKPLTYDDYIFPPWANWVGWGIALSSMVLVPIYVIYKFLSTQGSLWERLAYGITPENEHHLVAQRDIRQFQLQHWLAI
T2 sequence (P31645 whole entry): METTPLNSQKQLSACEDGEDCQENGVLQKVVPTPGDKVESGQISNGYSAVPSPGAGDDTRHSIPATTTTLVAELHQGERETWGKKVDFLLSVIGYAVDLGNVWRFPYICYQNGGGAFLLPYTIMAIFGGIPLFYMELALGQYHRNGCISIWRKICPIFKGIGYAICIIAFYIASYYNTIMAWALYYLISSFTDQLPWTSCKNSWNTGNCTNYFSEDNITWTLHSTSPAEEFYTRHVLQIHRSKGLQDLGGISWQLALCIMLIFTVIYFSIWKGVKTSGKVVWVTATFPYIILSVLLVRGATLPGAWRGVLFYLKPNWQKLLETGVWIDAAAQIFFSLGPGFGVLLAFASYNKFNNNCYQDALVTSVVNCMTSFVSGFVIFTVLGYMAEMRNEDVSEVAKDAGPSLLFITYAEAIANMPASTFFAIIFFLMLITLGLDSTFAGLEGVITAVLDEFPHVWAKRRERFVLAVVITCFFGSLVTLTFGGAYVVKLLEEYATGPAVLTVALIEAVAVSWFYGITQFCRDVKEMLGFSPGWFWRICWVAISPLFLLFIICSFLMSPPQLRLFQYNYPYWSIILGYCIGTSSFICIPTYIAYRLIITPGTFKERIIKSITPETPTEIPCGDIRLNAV

Row | SMILES | pIC50 DAT [1, 12] | IC50 [2] | pIC50 SERT ([3]; QSAR data matrix) | IC50 [4] | pIC50 NET [5] | IC50 [6] | Selectivity ratio DAT/SERT [1] | IC50 [1, 14] | SERT-mediated current [9] | Selectivity ratio NET/DAT [5] | IC50 [5] | Detected in urine samples [7] | DAT-mediated current [10] | also measured
1 | CN[C@H](C)[C@H](O)c1ccc(C)cc1 [1R2R-MMC, reference compound] | 4.85 | 14.1 µM | 3.52 | 39.1 µM | 4.41 | 302 µM |  |  |  |  |  |  |  | 
2 | CN[C@@H](C)[C@H](O)c1ccc(C)cc1 [1R2S-MMC, reference compound] | 4.68 | 21.1 µM | 4.49 | 39 µM | 4.41 | 32.2 µM |  |  |  |  |  |  |  | 
3 | CN[C@H](C)[C@@H](O)c1ccc(C)cc1 [1S2R-MMC, reference compound] | 4.90 | 12.7 µM | 4.18 | 22.7 µM | 4.64 | 65.6 µM |  |  |  |  |  |  |  | 
4 | CN[C@@H](C)[C@@H](O)c1ccc(C)cc1 [1S2S-MMC, reference compound] | 4.89 | 12.9 µM | 3.61 | 47.1 µM | 4.33 | 248 µM |  |  |  |  |  |  |  | 
5 | Cc1ccc(C(=O)[C@@H](C)N)cc1 [2R-MC, reference compound] | 5.03 | 9.44 µM | 3.70 | 4.54 µM | 5.34 | 200 µM |  |  |  |  |  |  |  | 
6 | Cc1ccc(C(=O)[C@H](C)N)cc1 [2S-MC, reference compound] | 5.06 | 8.72 µM | 4.96 | 3.84 µM | 5.42 | 10.9 µM |  |  |  |  |  |  |  | 
7 | Cc1ccc(C(=O)C(C)N)cc1 (stereo not drawn) [4-MC, nor-mephedrone, reference compound] |  |  |  |  |  |  |  |  |  |  |  |  |  | detection in human urine sample [7]: detected; plasma level as % of the plasma mephedrone [8]: 25%
8 | CN[C@H](C)[C@H](O)c1ccc(CO)cc1 [Dihydro-(R,R)-4-OH-MMC] |  |  |  |  |  |  | 67.72 | 25.6 µM | did not elicit any DAT or SERT-mediated current | 0.69 | 37 µM | − | did not elicit any DAT or SERT-mediated current | IC50 [1, 13]: 25.7 µM; IC50 ([3]; in Figure 3, read-out: IC50(SERT)): 1700 µM; IC50 [3, 15]: 1740 µM
9 | Cc1ccc([C@@H](O)[C@H](C)N)cc1 [Dihydro-(R,S)-4-MC] |  |  |  |  |  |  | 4.94 | 13.5 µM | elicited only SERT-mediated currents | 0.42 | 32.4 µM | + | elicited only SERT-mediated currents | IC50 [1, 13]: 13.5 µM; IC50 [3, 16]: 66.9 µM; IC50 [3, 17]: 66.9 µM
10 | Cc1ccc([C@H](O)[C@H](C)N)cc1 [Dihydro-(S,S)-4-MC] |  |  |  |  |  |  | 1.42 | 22.6 µM | elicited only SERT-mediated currents | 2.37 | 9.51 µM | + | elicited only SERT-mediated currents | IC50 [1, 13]: 22.4 µM; IC50 [3, 16]: 32.2 µM; IC50 [3, 17]: 32.2 µM
11 | C[C@H](N)C(=O)c1ccc(CO)cc1 [S-4-OH-MC] |  |  |  |  |  |  | 2.08 | 19.2 µM | elicited both DAT- and SERT mediated currents | 3.22 | 5.97 µM | − | elicited both DAT- and SERT mediated currents | IC50 [3, 15]: 40 µM
12 | CC(N)C(O)c1ccc(CO)cc1 (stereo not drawn) [dihydro-4-OH-MC] |  |  |  |  |  |  |  |  |  |  |  |  |  | relative abundance [11]: 0.1–0.2%; detection in human urine sample [7]: not found
